ChEMBL document CHEMBL3868582, “Discovery, pharmacology, and clinical profile of omadacycline, a novel aminomethylcycline antibiotic” (Bioorg Med Chem, 2016)
In brackets after ≈: the same amount, converted by molar mass.

Assays:
Haemophilus influenzae [1] = test: Antibacterial activity against Haemophilus influenzae PBS981; format: functional
Escherichia coli [2] = test: Antibacterial activity against Escherichia coli by microdilution broth assay; format: functional
[3] = Induction of CYP1B1 mRNA level in human primary hepatocytes at 1 to 100 uM after 24 to 48 hrs relative to control; format: ADME, cell-based, Hepatocyte
[4] = Induction of CYP2C8 mRNA level in human primary hepatocytes at 1 to 100 uM after 24 to 48 hrs relative to control; format: ADME, cell-based, Hepatocyte
Proteus sp. = test: Antibacterial activity against Proteus sp.; format: functional; conditions: Proteus sp. (in: enterobacteria)
[5] = Induction of CYP1A2 mRNA level in human primary hepatocytes at 1 to 100 uM after 24 to 48 hrs relative to control; format: ADME, cell-based, Hepatocyte
Shigella sp. = test: Antibacterial activity against Shigella sp.; format: functional
[6] = Induction of CYP1A1 mRNA level in human primary hepatocytes at 1 to 100 uM after 24 to 48 hrs relative to control; format: ADME, cell-based, Hepatocyte
[7] = Induction of CYP2C19 mRNA level in human primary hepatocytes at 1 to 100 uM after 24 to 48 hrs relative to control; format: ADME, cell-based, Hepatocyte
Clostridioides difficile [8] = test: Antibacterial activity against Clostridium difficile by broth microdilution assay; format: functional
Clostridioides difficile [9] = test: Antibacterial activity against Clostridium difficile infected in hamster model assessed as median survival time; format: functional
Enterobacter cloacae = test: Antibacterial activity against Enterobacter cloacae; format: functional
[10] = tested on: Stenotrophomonas maltophilia; test: Antibacterial activity against Stenotrophomonas maltophilia; format: functional
[11] = Induction of CYP2A6 mRNA level in human primary hepatocytes at 1 to 100 uM after 24 to 48 hrs relative to control; format: ADME, cell-based, Hepatocyte
Streptococcus pneumoniae [12] = test: Antibacterial activity against Streptococcus pneumoniae PBS1399; format: functional
[13] = Induction of CYP2J2 mRNA level in human primary hepatocytes at 1 to 100 uM after 24 to 48 hrs relative to control; format: ADME, cell-based, Hepatocyte
Haemophilus influenzae [14] = test: Antibacterial activity against Haemophilus influenzae PBS981 infected in CD-1 mouse assessed as reduction in bacterial load in lungs administered intravenously as single dose after 2 hrs of infection measured after 24 hrs post treatment; format: functional; conditions: PBS981, iv
[15] = Metabolic stability in human hepatocytes at 48 uM up to 24 hrs; format: ADME, cell-based, Hepatocyte; conditions: read-out: Stability
Streptococcus pneumoniae [16] = test: Antibacterial activity against Streptococcus pneumoniae PBS1399 infected in mouse assessed as protection against bacterial infection by measuring mouse survival administered intravenously as single dose after 2 hrs of infection measured on day 7; format: functional; conditions: PBS1399, iv, read-out: PD50
Bacteroides fragilis = test: Antibacterial activity against Bacteroides fragilis; format: functional
Klebsiella aerogenes = test: Antibacterial activity against Enterobacter aerogenes; format: functional
[17] = Metabolic stability in human microsomes at 4.8 uM after 30 mins; format: ADME, Microsome; conditions: read-out: Stability
Salmonella sp. = test: Antibacterial activity against Salmonella sp.; format: functional
Haemophilus influenzae [18] = test: […] activity against Haemophilus influenzae assessed as reduction in bacterial load at MIC by time-kill analysis; format: functional
Clostridioides difficile [19] = test: Antibacterial activity against Clostridium difficile by agar microdilution assay; format: functional
Staphylococcus aureus [20] = test: Antibacterial activity against Staphylococcus aureus USA300 in mouse thigh wound infection model assessed as reduction in bacterial load administered intravenously as single dose after 2 hrs of infection measured after 24 hrs post treatment; format: functional; conditions: USA300, iv
Staphylococcus aureus [21] = test: Antibacterial activity against Staphylococcus aureus USA400 in mouse thigh wound infection model assessed as reduction in bacterial load administered intravenously as single dose after 2 hrs of infection measured after 24 hrs post treatment; format: functional; conditions: USA400, iv
[22] = Induction of CYP2C9 mRNA level in human primary hepatocytes at 1 to 100 uM after 24 to 48 hrs relative to control; format: ADME, cell-based, Hepatocyte
Pseudomonas aeruginosa = test: Antibacterial activity against Pseudomonas aeruginosa; format: functional
[23] = Induction of CYP2B6 mRNA level in human primary hepatocytes at 1 to 100 uM after 24 to 48 hrs relative to control; format: ADME, cell-based, Hepatocyte
Serratia marcescens = test: Antibacterial activity against Serratia marcescens; format: functional
Staphylococcus aureus [24] = test: Antibacterial activity against Staphylococcus aureus USA300; format: functional
Haemophilus influenzae [25] = test: Antibacterial activity against Haemophilus influenzae by microdilution broth assay; format: functional
[26] = Induction of CYP3A4/5 mRNA level in human primary hepatocytes at 1 to 100 uM after 24 to 48 hrs relative to control; format: ADME, cell-based, Hepatocyte
Staphylococcus aureus [27] = test: Antibacterial activity against Staphylococcus aureus USA400; format: functional
Klebsiella pneumoniae = test: Antibacterial activity against Klebsiella pneumoniae by microdilution broth assay; format: functional
Escherichia coli [28] = test: Antibacterial activity against Escherichia coli; format: functional
[29] = molecular target: Voltage-gated inwardly rectifying potassium channel KCNH2 (Homo sapiens, UniProt Q12809); test: Inhibition of human ERG
Voltage-gated inwardly rectifying potassium channel KCNH2, sequence (Q12809 whole entry): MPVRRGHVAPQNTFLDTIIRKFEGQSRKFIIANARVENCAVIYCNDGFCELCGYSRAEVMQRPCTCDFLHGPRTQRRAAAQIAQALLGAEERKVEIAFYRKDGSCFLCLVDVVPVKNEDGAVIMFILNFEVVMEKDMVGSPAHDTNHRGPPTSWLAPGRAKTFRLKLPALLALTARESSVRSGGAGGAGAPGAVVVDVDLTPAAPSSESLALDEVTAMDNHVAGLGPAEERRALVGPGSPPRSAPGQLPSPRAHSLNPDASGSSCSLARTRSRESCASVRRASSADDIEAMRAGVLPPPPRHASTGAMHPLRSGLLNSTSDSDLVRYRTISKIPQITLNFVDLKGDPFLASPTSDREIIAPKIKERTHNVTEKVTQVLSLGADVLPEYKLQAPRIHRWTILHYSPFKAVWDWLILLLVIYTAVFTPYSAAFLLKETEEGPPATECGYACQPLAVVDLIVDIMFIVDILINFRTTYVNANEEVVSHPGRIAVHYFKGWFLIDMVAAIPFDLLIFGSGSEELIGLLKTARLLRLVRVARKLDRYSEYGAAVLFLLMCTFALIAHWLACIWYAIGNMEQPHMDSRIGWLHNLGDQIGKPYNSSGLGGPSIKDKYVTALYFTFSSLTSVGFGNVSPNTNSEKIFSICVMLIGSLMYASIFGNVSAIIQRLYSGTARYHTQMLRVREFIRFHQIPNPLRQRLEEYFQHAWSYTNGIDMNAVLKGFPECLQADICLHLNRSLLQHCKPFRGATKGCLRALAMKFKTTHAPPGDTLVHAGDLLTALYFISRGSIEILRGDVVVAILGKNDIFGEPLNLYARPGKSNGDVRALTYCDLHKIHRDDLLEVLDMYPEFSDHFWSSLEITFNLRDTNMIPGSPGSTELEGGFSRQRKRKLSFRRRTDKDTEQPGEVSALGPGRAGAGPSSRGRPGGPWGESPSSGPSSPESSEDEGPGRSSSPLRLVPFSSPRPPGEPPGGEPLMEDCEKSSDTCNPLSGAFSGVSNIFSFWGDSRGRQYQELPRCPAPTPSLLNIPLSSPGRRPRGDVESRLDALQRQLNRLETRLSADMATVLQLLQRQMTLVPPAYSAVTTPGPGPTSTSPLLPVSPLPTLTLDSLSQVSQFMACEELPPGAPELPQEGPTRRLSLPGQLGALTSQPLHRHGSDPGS

Providencia sp. = test: Antibacterial activity against Providencia sp.; format: functional
[30] = Induction of CYP2D6 mRNA level in human primary hepatocytes at 1 to 100 uM after 24 to 48 hrs relative to control; format: ADME, cell-based, Hepatocyte
Moraxella catarrhalis = test: Antibacterial activity against Moraxella catarrhalis; format: functional
[31] = Induction of CYP2E1 mRNA level in human primary hepatocytes at 1 to 100 uM after 24 to 48 hrs relative to control; format: ADME, cell-based, Hepatocyte
Clostridium perfringens = test: Antibacterial activity against Clostridium perfringens; format: functional
Haemophilus influenzae [32] = test: Antibacterial activity against Haemophilus influenzae; format: functional

For `CN(C)c1cc(CNCC(C)(C)C)c(O)c2c1C[C@H]1C[C@H]3[C@H](N(C)C)C(O)=C(C(N)=O)C(=O)[C@@]3(O)C(O)=C1C2=O` [OMADACYCLINE], the MIC (Haemophilus influenzae [1]) was 1 µg/mL (≈ 1.8 µM), the MIC90 (Escherichia coli [2]) was 2 to 4 µg/mL (≈ 3.59 to 7.19 µM) and the Activity [3] was under 40%. For the same molecule, the Activity [4] was under 40%, the MIC90 (Proteus sp.) was over 16 µg/mL and the Activity [5] was under 40%. For the same molecule, the MIC90 (Shigella sp.) was under 4 µg/mL, the Activity [6] was under 40% and the Activity [7] was under 40%. The MIC90 (Clostridioides difficile [8]) was 0.06 µg/mL (≈ 0.108 µM), the MST (Clostridioides difficile [9]) was 12 days and the MIC90 (Enterobacter cloacae) was under 4 µg/mL. For the same molecule, the MIC90 [10] was under 4 µg/mL, the Activity [11] was under 40% and the MIC (Streptococcus pneumoniae [12]) was 0.125 µg/mL (≈ 0.225 µM). It also gave an Activity [13] of under 40%, an ED50 (Haemophilus influenzae [14]) of 6.47 mg/kg and a remaining at 24 h, 48 µM [15] of over 86%. It also gave an ED50 (Streptococcus pneumoniae [16]) of 1.5 mg/kg, an MIC90 (Bacteroides fragilis) of 0.12 to 4 µg/mL (≈ 0.216 to 7.19 µM) and an MIC90 (Klebsiella aerogenes) of under 4 µg/mL. For the same molecule, the remaining at 0.5 h, 4.8 µM [17] was over 90%, the MIC90 (Salmonella sp.) was under 4 µg/mL and the Activity (Haemophilus influenzae [18]) was “>=3 log10CFU”. For the same molecule, the MIC90 (Clostridioides difficile [19]) was 0.12 µg/mL (≈ 0.216 µM), the ED50 (Staphylococcus aureus [20]) was 0.4 mg/kg and the ED50 (Staphylococcus aureus [21]) was 0.68 mg/kg. For the same molecule, the Activity [22] was under 40%, the MIC90 (Pseudomonas aeruginosa) was over 16 µg/mL and the Activity [23] was under 40%. It also gave an MIC90 (Serratia marcescens) of under 4 µg/mL, an MIC (Staphylococcus aureus [24]) of 0.25 µg/mL (≈ 0.449 µM) and an MIC90 (Haemophilus influenzae [25]) of 2 to 4 µg/mL (≈ 3.59 to 7.19 µM). It also gave an Activity [26] of under 40%, an MIC (Staphylococcus aureus [27]) of 0.5 µg/mL (≈ 0.898 µM) and an MIC90 (Klebsiella pneumoniae) of 2 to 4 µg/mL (≈ 3.59 to 7.19 µM). For the same molecule, the MIC90 (Escherichia coli [28]) was under 4 µg/mL, the IC25 [29] was 166 µg/mL (≈ 298 µM) and the MIC90 (Providencia sp.) was over 16 µg/mL. It also gave an Activity [30] of under 40%, an MIC90 (Moraxella catarrhalis) of 0.25 µg/mL (≈ 0.449 µM) and an Activity [31] of under 40%. The MIC90 (Clostridium perfringens) was 0.12 to 4 µg/mL (≈ 0.216 to 7.19 µM) and the MIC90 (Haemophilus influenzae [32]) was 2 µg/mL (≈ 3.59 µM).
